In patent publication US11840686B2, “Modulation of prekallikrein (PKK) expression” (Ionis Pharmaceuticals, Inc., priority 2013, dated 2023):
Strand notation (5' to 3'): a small letter for the sugar, then the base; units joined by * are phosphorothioate-linked, units joined directly phosphodiester-linked; [ ] holds rarer units or linkages, { } end groups; capitals alone tell only the bases. e = 2'-O-(2-methoxyethyl) (MOE); k = constrained ethyl (cEt); [5mC] = 5-methylcytosine; d = 2'-deoxy (DNA)

Test system: human PKK mRNA
Assay: Antisense inhibition of human PKK mRNA in HepaRG cells, 1,000 nM, MOE/deoxy/cEt oligonucleotides (Example 3)
Format: cell-based
Conditions: HepaRG cells, 1,000 nM antisense oligonucleotide, Table 29
Outline: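 HepaRG cells at 20,000 per well electroporated with 1,000 nM 16-mer MOE/cEt/deoxy gapmers (phosphorothioate, 5-methylcytosine). After about 24 h, PKK mRNA measured by qRT-PCR with primer probe set RTS3454, normalized to RIBOGREEN total RNA. Reported as percent inhibition versus untreated cells.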

Substance | % inhibition [%]
548544 (antisense eG*e[5mC]*kT*dG*dT*dG*dA*d[5mC]*dT*d[5mC]*dA*dG*dA*kT*k[5mC]*eA) [compound 548544] | 62
548545 (antisense e[5mC]*eT*k[5mC]*dT*dT*d[5mC]*dG*d[5mC]*dA*dT*dG*dG*dA*k[5mC]*kA*e[5mC]) [compound 548545] | 46
548546 (antisense eG*e[5mC]*k[5mC]*d[5mC]*dA*dA*dG*d[5mC]*d[5mC]*dT*dA*d[5mC]*dA*kT*kG*e[5mC]) [compound 548546] | 35
548548 (antisense eG*e[5mC]*kT*dT*dG*dT*dA*dG*dA*dA*dG*dG*dG*kA*kT*eT) [compound 548548] | 54
548549 (antisense eT*eG*kT*dG*d[5mC]*dA*dA*dT*d[5mC]*dA*dG*dG*dT*kG*kG*eA) [compound 548549] | 56
548550 (antisense e[5mC]*e[5mC]*kG*dG*d[5mC]*d[5mC]*dT*dG*dG*dA*dT*dA*d[5mC]*kA*kG*e[5mC]) [compound 548550] | 0
548551 (antisense e[5mC]*eG*kG*d[5mC]*d[5mC]*dA*dA*dT*dG*dG*dG*dA*dA*kA*kG*eG) [compound 548551] | 25
548552 (antisense eT*eG*kG*dA*dG*dG*dA*dG*dT*dA*dG*dG*dG*kA*kA*eT) [compound 548552] | 10
548553 (antisense e[5mC]*e[5mC]*k[5mC]*dG*dA*dA*dG*dA*dG*dT*d[5mC]*dA*dA*kG*kT*e[5mC]) [compound 548553] | 46
548554 (antisense eG*eT*kG*d[5mC]*dT*dG*d[5mC]*dA*dT*dT*dG*d[5mC]*dA*kT*kG*eA) [compound 548554] | 42
548555 (antisense eA*e[5mC]*kA*d[5mC]*dG*d[5mC]*d[5mC]*dA*dG*dG*dT*dG*dA*kA*kA*eA) [compound 548555] | 2
548556 (antisense eA*eT*kG*d[5mC]*dA*dT*dG*d[5mC]*d[5mC]*dT*dA*d[5mC]*d[5mC]*k[5mC]*kA*eA) [compound 548556] | 43
548559 (antisense eG*eA*kG*dA*d[5mC]*dT*dG*dA*dA*dG*d[5mC]*d[5mC]*d[5mC]*kT*k[5mC]*eA) [compound 548559] | 44
548560 (antisense e[5mC]*eA*k[5mC]*dT*dG*d[5mC]*d[5mC]*dT*dA*dG*dA*dA*dA*kG*kG*e[5mC]) [compound 548560] | 16
548561 (antisense eT*eG*kT*dA*dG*dT*dA*dT*d[5mC]*d[5mC]*dA*dG*dA*kG*kT*eA) [compound 548561] | 46
548562 (antisense eA*eG*kA*dT*dG*dA*d[5mC]*d[5mC]*dT*dG*d[5mC]*dA*dG*kA*kT*eG) [compound 548562] | 50
548563 (antisense eA*eA*kA*d[5mC]*d[5mC]*dA*dT*dG*dA*dA*dT*dT*dA*kG*kG*eT) [compound 548563] | 20
548564 (antisense eT*eT*kG*d[5mC]*dT*dA*d[5mC]*dT*dT*dT*dA*d[5mC]*dA*k[5mC]*k[5mC]*eA) [compound 548564] | 69
548565 (antisense eG*eG*k[5mC]*dA*dT*dT*dA*dG*dG*dA*dT*dA*dG*kG*k[5mC]*eA) [compound 548565] | 63
548566 (antisense e[5mC]*eA*k[5mC]*dT*d[5mC]*dA*dG*dA*d[5mC]*dT*dG*dT*d[5mC]*kT*kG*eA) [compound 548566] | 0
548567 (antisense eA*eG*kA*dT*d[5mC]*d[5mC]*dG*dG*dA*dA*dT*dA*dA*k[5mC]*k[5mC]*eA) [compound 548567] | 67
548568 (eA*eT*kT*dG*dA*d[5mC]*dA*dA*d[5mC]*d[5mC]*dA*dT*d[5mC]*k[5mC]*kT*eA; antisense) [compound 548568] | 27
548569 (eA*e[5mC]*kT*d[5mC]*dA*dT*dT*dG*dG*dT*d[5mC]*dT*dA*k[5mC]*kA*eG; antisense) [compound 548569] | 41
548571 (eA*e[5mC]*kT*d[5mC]*dT*dG*dA*dG*dG*d[5mC]*d[5mC]*dT*dT*kA*kG*eG; antisense) [compound 548571] | 59
548572 (eG*e[5mC]*kA*dT*dT*dA*d[5mC]*dT*d[5mC]*dA*dG*d[5mC]*dA*kT*kG*eT; antisense) [compound 548572] | 63
548573 (e[5mC]*e[5mC]*kA*dG*dT*d[5mC]*dA*d[5mC]*d[5mC]*dA*d[5mC]*d[5mC]*dA*kT*kT*eG; antisense) [compound 548573] | 65
548574 (eG*eG*kT*d[5mC]*dT*dA*dA*d[5mC]*dT*d[5mC]*dT*dA*dA*kG*kG*eG; antisense) [compound 548574] | 0
548575 (eT*eG*kT*d[5mC]*d[5mC]*dT*dT*dT*dA*dA*dA*dG*dT*kA*kT*e[5mC]; antisense) [compound 548575] | 18

Substance | % inhibition [%]
548576 (eT*e[5mC]*kA*dT*dG*dT*dG*dG*d[5mC]*dA*dA*d[5mC]*d[5mC]*kT*kG*eT; antisense) [compound 548576] | 41
548577 (eA*eA*kT*d[5mC]*dT*dG*d[5mC]*dA*d[5mC]*d[5mC]*dT*dG*dG*k[5mC]*kA*eG; antisense) [compound 548577] | 42
548578 (e[5mC]*eA*kT*dG*dG*d[5mC]*dT*dA*dT*dT*dG*d[5mC]*dT*kT*k[5mC]*e[5mC]; antisense) [compound 548578] | 73
548579 (eG*eG*kG*d[5mC]*dT*dA*dT*dA*dT*dT*dG*d[5mC]*d[5mC]*kA*kG*e[5mC]; antisense) [compound 548579] | 46
548580 (e[5mC]*e[5mC]*kA*dG*dA*dG*d[5mC]*d[5mC]*dT*dT*dG*dA*dT*k[5mC]*kA*eG; antisense) [compound 548580] | 36
548581 (eG*eG*kT*dG*dG*dG*dT*dT*dA*dT*d[5mC]*dT*dG*kA*kG*eA; antisense) [compound 548581] | 13
548582 (eT*eA*kG*d[5mC]*dT*d[5mC]*d[5mC]*dA*dT*dG*d[5mC]*dT*dG*kT*kG*eT; antisense) [compound 548582] | 59
548584 (eT*eG*kA*dT*dG*dA*dA*dG*dT*dT*d[5mC]*d[5mC]*dA*k[5mC]*k[5mC]*eT; antisense) [compound 548584] | 47
548585 (eT*eA*kG*dG*d[5mC]*dA*d[5mC]*dA*dG*dA*d[5mC]*dA*dA*k[5mC]*k[5mC]*eT; antisense) [compound 548585] | 33
548586 (eT*e[5mC]*k[5mC]*dA*dA*d[5mC]*dT*dA*d[5mC]*dA*dG*dG*dA*k[5mC]*kT*e[5mC]; antisense) [compound 548586] | 39
548587 (eT*eT*k[5mC]*dT*dG*dG*dG*dA*dA*dA*d[5mC]*dT*d[5mC]*kT*k[5mC]*eT; antisense) [compound 548587] | 45
548588 (eA*eG*k[5mC]*dT*d[5mC]*dA*d[5mC]*dA*d[5mC]*d[5mC]*d[5mC]*dA*dA*kA*kA*eA; antisense) [compound 548588] | 10
548589 (eT*e[5mC]*kT*dG*dT*dT*dA*d[5mC]*d[5mC]*dT*dT*dG*dA*kG*kG*eA; antisense) [compound 548589] | 40
548590 (eT*eG*kG*dT*d[5mC]*dA*dT*dG*dT*d[5mC]*dA*dA*d[5mC]*kT*kG*eT; antisense) [compound 548590] | 35
548591 (eG*eT*kA*dA*dG*d[5mC]*d[5mC]*dT*dT*d[5mC]*dA*d[5mC]*dA*kG*kG*eG; antisense) [compound 548591] | 3
548592 (e[5mC]*eT*k[5mC]*dA*d[5mC]*d[5mC]*dA*dG*dA*dG*dT*dT*dG*kT*k[5mC]*e[5mC]; antisense) [compound 548592] | 7
548593 (e[5mC]*eA*kT*d[5mC]*d[5mC]*d[5mC]*dT*dG*dA*d[5mC]*dA*dG*dG*kT*k[5mC]*e[5mC]; antisense) [compound 548593] | 61
548594 (e[5mC]*e[5mC]*k[5mC]*dT*dT*d[5mC]*dT*dA*dA*d[5mC]*d[5mC]*dA*dA*kG*kG*eA; antisense) [compound 548594] | 30
548595 (eG*eG*kA*dT*dG*dA*dG*dA*dT*dG*d[5mC]*dA*dT*k[5mC]*k[5mC]*eA; antisense) [compound 548595] | 8
548596 (eA*eT*kG*dG*d[5mC]*dG*dG*dT*dG*dA*dA*dG*d[5mC]*kA*kG*e[5mC]; antisense) [compound 548596] | 20
548597 (eT*eG*kA*dA*dT*dA*d[5mC]*d[5mC]*dA*dT*d[5mC]*d[5mC]*d[5mC]*k[5mC]*kG*e[5mC]; antisense) [compound 548597] | 50
548598 (eG*e[5mC]*kG*d[5mC]*d[5mC]*dA*dT*d[5mC]*dT*dG*d[5mC]*d[5mC]*d[5mC]*kT*kG*eT; antisense) [compound 548598] | 50
548599 (eT*eG*kG*dG*dT*dT*dG*dG*dA*dG*dG*dA*dG*kT*kG*eG; antisense) [compound 548599] | 19
548600 (eT*eG*kG*dT*dG*dG*dT*dG*dG*dG*dA*dT*dT*kG*kG*eT; antisense) [compound 548600] | 53
548601 (eT*eT*kG*dG*dT*dG*dG*dT*dG*dG*dG*dA*dT*kT*kG*eG; antisense) [compound 548601] | 18
548602 (eG*eG*kT*dG*dG*dT*dG*dG*dA*dA*dT*dT*dG*kG*kT*eG; antisense) [compound 548602] | 20
548603 (eG*eA*kG*dA*dT*dT*dG*dG*dT*dG*dG*dT*dG*kG*kG*eT; antisense) [compound 548603] | 35
